Earlier results as cited in patent US20040127531A1, “Adhesive coated sheet for dermal delivery of a selective cyclooxygenase-2 inhibitor” (priority 2002, published 2004).

Columns and labels:
COX-1 = COX-1 (Homo sapiens, UniProt P23219)
COX-2 = molecular target: T1, COX-2 (Homo sapiens, UniProt P35354)
T1 sequence (P35354 18-604): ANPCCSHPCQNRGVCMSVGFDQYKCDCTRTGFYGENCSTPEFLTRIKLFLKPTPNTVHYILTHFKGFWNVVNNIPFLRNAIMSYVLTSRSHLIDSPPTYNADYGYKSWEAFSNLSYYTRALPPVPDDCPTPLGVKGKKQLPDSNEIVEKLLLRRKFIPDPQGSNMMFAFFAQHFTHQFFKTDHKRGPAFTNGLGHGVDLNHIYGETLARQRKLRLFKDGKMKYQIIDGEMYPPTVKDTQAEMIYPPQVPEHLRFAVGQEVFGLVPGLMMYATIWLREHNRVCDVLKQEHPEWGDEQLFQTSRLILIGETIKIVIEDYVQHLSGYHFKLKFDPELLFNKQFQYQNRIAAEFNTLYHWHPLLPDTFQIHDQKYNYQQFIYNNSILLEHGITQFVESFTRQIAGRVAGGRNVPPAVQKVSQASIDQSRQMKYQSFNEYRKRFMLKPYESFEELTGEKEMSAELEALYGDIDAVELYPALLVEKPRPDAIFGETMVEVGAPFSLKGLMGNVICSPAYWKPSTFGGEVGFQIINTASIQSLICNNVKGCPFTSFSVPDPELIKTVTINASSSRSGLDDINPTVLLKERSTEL

COX-1, sequence (P23219 24-599): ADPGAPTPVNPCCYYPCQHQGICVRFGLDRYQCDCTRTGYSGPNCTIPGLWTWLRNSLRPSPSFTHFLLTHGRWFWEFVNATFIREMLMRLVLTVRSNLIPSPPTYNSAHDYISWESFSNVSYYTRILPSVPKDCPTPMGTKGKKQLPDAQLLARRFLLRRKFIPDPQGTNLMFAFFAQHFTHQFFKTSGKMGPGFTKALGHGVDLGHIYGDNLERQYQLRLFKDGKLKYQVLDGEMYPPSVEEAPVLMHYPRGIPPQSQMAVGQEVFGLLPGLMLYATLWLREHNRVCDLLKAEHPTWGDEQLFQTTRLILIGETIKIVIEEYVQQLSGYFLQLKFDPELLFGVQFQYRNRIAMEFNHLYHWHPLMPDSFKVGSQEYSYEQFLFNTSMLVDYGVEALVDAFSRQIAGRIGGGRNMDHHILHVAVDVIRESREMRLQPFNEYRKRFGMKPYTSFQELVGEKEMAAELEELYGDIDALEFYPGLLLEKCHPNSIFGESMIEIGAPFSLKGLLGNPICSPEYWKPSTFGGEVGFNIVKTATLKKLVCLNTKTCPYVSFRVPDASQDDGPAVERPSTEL

| SMILES | in vitro inhibitory activity against COX-1 (COX-1) | in vitro inhibitory activity against COX-2 (COX-2) |
| --- | --- | --- |
| CCC(=O)NS(=O)(=O)c1ccc(-c2c(-c3ccccc3)noc2C)cc1 [Parecoxib, N-[[4-(5-methyl-3-phenylisoxazol-4-yl)phenyl]sulfonyl]propanamide] | weak | weak |
| Cc1onc(-c2ccccc2)c1-c1ccc(S(N)(=O)=O)cc1 [valdecoxib, 4-[5-methyl-3-phenylisoxazol-4-yl]benzenesulfonamide] | weak | – |
